Assay results published in patent publication US5948786A, “Piperidinylpyrimidine derivatives” (Sumitomo Pharmaceuticals Company, Limited, priority 1996, dated 1999).

tested on: TNF α production from mouse macrophages; experiment: Inhibitory activity of compound on TNF α Production from mouse macrophages (LPS-induced PEC's); format: cell-based; conditions: Macrophage, LPS 10 μg/ml, 18 hours
Protocol: BALB/c mice (female, 5-7 weeks old, Charles River Japan, Tokyo, Japan) were injected i.p. with 1 ml of 2.4% thioglycollate broth. After 4 days, the mice were sacrificed. Peritoneal exudated cells (PEC's) were collected from the peritoneal cavity by washing with minimum essential medium (MEM, Handai biseibutubyou kenkyukai, Osaka, Japan) containing 5 U/ml heparin, 1% fetal bovine serum (FBS, Filtron, Victoria, Australia) and antibiotics. The cells were washed two times with MEM, suspended with MEM containing 10% FBS (complete MEM, cMEM) and seeded into 96-well culture plates (Costar, Cambridge, Mass., USA) at 2×10^5 cells/well. The cells were incubated for 1 hour at 37° C. in a humidified 5% CO2 incubator and washed two times to remove non-adherent cells.
TNF α was induced by 10 μg/ml of LPS (E. coli O111B4, DIFCO, Detroit, Mich., USA) the cells were cultured for 18 hours at 37° C. A compound of the present invention was dissolved in DMSO and added to the culture simultaneously with LPS. The final DMSO concentration was below 0.1%. The TNF α concentration in supernatant and recombinant mouse TNF α standard (rm-TNF α, Genzyme, Mass., USA) were incubated overnight at 4° C. in a 96-well plate coated with anti-mouse TNF α monoclonal antibody (PharMingen, San Diego, Calif., USA) that previously had been blocked with 10% FBS. Each well of the plate first was incubated at room temperature with biotinylated anti-mouse TNF α polyclonal antibodies (PharMingen) for 45 minutes, then with peroxidase-conjugated streptavidin (Kirkegaard & Perry Laboratories Inc., Gaitherburg, Md., USA) for 30 minutes. After each incubation, the plate was washed 4 to 8 times with PBS containing 0.2% Tween 20. TMB (Kirkegaard & Perry Laboratories Inc.) was the peroxidase substrate used and, the absorbance of each well was quantified at 450 nm by a microplatereader (Molecular Devices Corp., CA, USA). TNF α levels in the supernatant were quantified with rm-TNF α as the standard.

| Structure (SMILES) | inhibition at 30 µM [%] |
| --- | --- |
| CCCC(=O)N1CCC(c2cc(Cc3ccc(OC)cc3)nc(N)n2)CC1 [Example 164] | 43 |
| CCCCC(=O)N1CCC(c2cc(Cc3ccc(OC)cc3)nc(N)n2)CC1 [Example 165] | 41 |
| CCCCCC(=O)N1CCC(c2cc(Cc3ccc(OC)cc3)nc(N)n2)CC1 [Example 166] | 48 |
| CCCCCCC(=O)N1CCC(c2cc(Cc3ccc(OC)cc3)nc(N)n2)CC1 [Example 167] | 52 |
| CCCCCCCC(=O)N1CCC(c2cc(Cc3ccc(OC)cc3)nc(N)n2)CC1 [Example 168] | 49 |
| CCCCCCCCC(=O)N1CCC(c2cc(Cc3ccc(OC)cc3)nc(N)n2)CC1 [Example 169] | 12 |
| CCCCCCCCCC(=O)N1CCC(c2cc(Cc3ccc(OC)cc3)nc(N)n2)CC1 [Example 170] | 11 |
| CCCCCCCCCCC(=O)N1CCC(c2cc(Cc3ccc(OC)cc3)nc(N)n2)CC1 [Example 171] | 13 |
| COc1ccc(Cc2cc(C3CCN(C(=O)C(C)(C)C)CC3)nc(N)n2)cc1 [Example 173] | 31 |
| COc1ccc(Cc2cc(C3CCN(C(=O)CCCl)CC3)nc(N)n2)cc1 [Example 174] | 54 |
| COc1ccc(Cc2cc(C3CCN(C(=O)CCBr)CC3)nc(N)n2)cc1 [Example 175] | 48 |
| COc1ccc(Cc2cc(C3CCN(C(=O)CCNC(=O)OC(C)(C)C)CC3)nc(N)n2)cc1 [Example 176, 2-amino-4-[1-(3-t-butoxycarbonylaminopropanoyl)-4-piperidinyl]-6-(4-methoxyphenylmethyl)pyrimidine] | 60 |
| COc1ccc(Cc2cc(C3CCN(C(=O)CCO)CC3)nc(N)n2)cc1 [Example 177] | 46 |
| COc1ccc(Cc2cc(C3CCN(C(=O)c4ccccc4OC)CC3)nc(N)n2)cc1 [Example 178] | 76 |
| COc1ccc(Cc2cc(C3CCN(C(=O)c4cccc(OC)c4)CC3)nc(N)n2)cc1 [Example 179] | 82 |
| COc1ccc(Cc2cc(C3CCN(C(=O)c4ccc(OC)cc4)CC3)nc(N)n2)cc1 [Example 180] | 70 |
| COc1ccc(Cc2cc(C3CCN(C(=O)c4ccccc4Cl)CC3)nc(N)n2)cc1 [Example 181] | 26 |
| COc1ccc(Cc2cc(C3CCN(C(=O)c4cccc(Cl)c4)CC3)nc(N)n2)cc1 [Example 182] | 46 |
| COc1ccc(Cc2cc(C3CCN(C(=O)c4ccc(Cl)cc4)CC3)nc(N)n2)cc1 [Example 183] | 54 |
| COc1ccc(Cc2cc(C3CCN(C(=O)c4ccccc4[N+](=O)[O-])CC3)nc(N)n2)cc1 [Example 184] | 73 |
| COc1ccc(Cc2cc(C3CCN(C(=O)c4cccc([N+](=O)[O-])c4)CC3)nc(N)n2)cc1 [Example 185] | 69 |
| COc1ccc(Cc2cc(C3CCN(C(=O)c4ccc([N+](=O)[O-])cc4)CC3)nc(N)n2)cc1 [Example 186] | 67 |

| Structure (SMILES) | inhibition at 30 µM [%] |
| --- | --- |
| COc1ccc(Cc2cc(C3CCN(C(=O)c4ccccn4)CC3)nc(N)n2)cc1 [Example 194] | 9 |
| COc1ccc(Cc2cc(C3CCN(C(=O)c4cccnc4)CC3)nc(N)n2)cc1 [Example 195] | 29 |
| COc1ccc(Cc2cc(C3CCN(C(=O)c4ccncc4)CC3)nc(N)n2)cc1 [Example 196] | 57 |
| COc1ccc(Cc2cc(C3CCN(C(=O)c4cccc(OC)c4OC)CC3)nc(N)n2)cc1 [Example 197] | 29 |
| COc1ccc(Cc2cc(C3CCN(C(=O)c4ccc(OC)cc4OC)CC3)nc(N)n2)cc1 [Example 198] | 29 |
| COc1ccc(Cc2cc(C3CCN(C(=O)c4ccc(OC)c(OC)c4)CC3)nc(N)n2)cc1 [Example 201] | 46 |
| COc1ccc(Cc2cc(C3CCN(C(=O)c4ccc(Cl)cc4Cl)CC3)nc(N)n2)cc1 [Example 204] | 84 |
| COc1ccc(Cc2cc(C3CCN(C(=O)c4cc(Cl)ccc4Cl)CC3)nc(N)n2)cc1 [Example 205] | 51 |
| COc1ccc(Cc2cc(C3CCN(C(=O)c4ccc(Cl)c(Cl)c4)CC3)nc(N)n2)cc1 [Example 207] | 76 |
| COc1ccc(Cc2cc(C3CCN(C(=O)c4cccc5ccccc45)CC3)nc(N)n2)cc1 [Example 211] | 80 |
| COc1ccc(Cc2cc(C3CCN(C(=O)c4ccc(OC)c(OC)c4OC)CC3)nc(N)n2)cc1 [Example 213] | 43 |
| COc1ccc(Cc2cc(C3CCN(C(=O)c4c(OC)ccc(OC)c4OC)CC3)nc(N)n2)cc1 [Example 214] | 13 |
| COc1ccc(Cc2cc(C3CCN(C(=O)c4cc(OC)c(OC)c(OC)c4)CC3)nc(N)n2)cc1 [Example 217] | 44 |
| COc1ccc(Cc2cc(C3CCN(C(=O)c4cc(Cl)cc(Cl)c4Cl)CC3)nc(N)n2)cc1 [Example 218] | 55 |
| COc1ccc(Cc2cc(C3CCN(C(=O)c4c(Cl)ccc(Cl)c4Cl)CC3)nc(N)n2)cc1 [Example 219] | 75 |
| COc1ccc(Cc2cc(C3CCN(C(=O)c4c(Cl)cc(Cl)cc4Cl)CC3)nc(N)n2)cc1 [Example 220] | 75 |
| COc1ccc(Cc2cc(C3CCN(C(=O)Cc4ccccc4OC)CC3)nc(N)n2)cc1 [Example 222] | 36 |
| COc1ccc(Cc2cc(C3CCN(C(=O)Cc4cccc(OC)c4)CC3)nc(N)n2)cc1 [Example 223] | 82 |
| COc1ccc(CC(=O)N2CCC(c3cc(Cc4ccc(OC)cc4)nc(N)n3)CC2)cc1 [Example 224] | 73 |
| COc1ccc(Cc2cc(C3CCN(C(=O)Cc4ccccc4Cl)CC3)nc(N)n2)cc1 [Example 225] | 43 |
| COc1ccc(Cc2cc(C3CCN(C(=O)Cc4cccc(Cl)c4)CC3)nc(N)n2)cc1 [Example 226] | 69 |
| COc1ccc(Cc2cc(C3CCN(C(=O)Cc4ccc(Cl)cc4)CC3)nc(N)n2)cc1 [Example 227] | 63 |

| Structure (SMILES) | inhibition at 30 µM [%] |
| --- | --- |
| COc1ccc(Cc2cc(C3CCN(C(=O)Cc4ccc([N+](=O)[O-])cc4)CC3)nc(N)n2)cc1 [Example 233] | 54 |
| COc1ccc(Cc2cc(C3CCN(C(=O)Cc4ccc(OC)c(OC)c4)CC3)nc(N)n2)cc1 [Example 237] | 87 |
| COc1ccc(Cc2cc(C3CCN(C(=O)Cc4cc(OC)cc(OC)c4)CC3)nc(N)n2)cc1 [Example 238] | 96 |
| COc1ccc(Cc2cc(C3CCN(C(=O)Cc4ccc(Cl)cc4Cl)CC3)nc(N)n2)cc1 [Example 239] | 99 |
| COc1ccc(Cc2cc(C3CCN(C(=O)Cc4ccc(Cl)c(Cl)c4)CC3)nc(N)n2)cc1 [Example 241] | 95 |
| COc1ccc(Cc2cc(C3CCN(C(=O)Cc4ccc([N+](=O)[O-])cc4[N+](=O)[O-])CC3)nc(N)n2)cc1 [Example 242] | 31 |
| COc1ccc(Cc2cc(C3CCN(C(=O)Cc4ccc5c(c4)OCO5)CC3)nc(N)n2)cc1 [Example 243] | 93 |
| COc1ccc(Cc2cc(C3CCN(C(=O)Cc4c(Cl)ccc(Cl)c4Cl)CC3)nc(N)n2)cc1 [Example 244] | 98 |
| CCCCCCCC(=O)N1CCC(c2cc(Cc3ccc(Cl)cc3)nc(N)n2)CC1 [Example 247] | 21 |
| CCCCCCCCC(=O)N1CCC(c2cc(Cc3ccc(Cl)cc3)nc(N)n2)CC1 [Example 248] | -6 |
| Nc1nc(Cc2ccc(Cl)cc2)cc(C2CCN(C(=O)c3ccc4c(c3)OCO4)CC2)n1 [Example 250] | 91 |
| COc1ccc(CC(=O)N2CCC(c3cc(Cc4ccc(Cl)cc4)nc(N)n3)CC2)cc1 [Example 251] | 98 |
| Nc1nc(Cc2ccc(Cl)cc2)cc(C2CCN(C(=O)Cc3ccc(Cl)cc3)CC2)n1 [Example 252] | 96 |
| CCCCCCCC(=O)N1CCC(c2cc(CCc3ccccc3)nc(N)n2)CC1 [Example 255] | 47 |
| CCCCCCCCC(=O)N1CCC(c2cc(CCc3ccccc3)nc(N)n2)CC1 [Example 256] | 75 |
| CCCCCCCCCC(=O)N1CCC(c2cc(CCc3ccccc3)nc(N)n2)CC1 [Example 257] | 90 |
| COc1ccc(CC(=O)N2CCC(c3cc(CCc4ccccc4)nc(N)n3)CC2)cc1 [Example 261] | 42 |
| Nc1nc(CCc2ccccc2)cc(C2CCN(C(=O)Cc3ccc(Cl)cc3)CC2)n1 [Example 262] | 43 |
| Nc1nc(CCc2ccccc2)cc(C2CCN(C(=O)Cc3ccc([N+](=O)[O-])cc3)CC2)n1 [Example 263] | 37 |
| Nc1nc(C2CCN(C(=O)OCc3ccccc3)CC2)c2ccccc2n1 [Example 269] | 77 |
| Nc1nc(C2CCN(S(=O)(=O)Cc3ccccc3)CC2)c2ccccc2n1 [Example 272] | 5 |
| COc1ccc(Cc2cc(C3CCN(C(=O)OCc4ccccc4)CC3)nc(N)n2)cc1 [Example 274] | 49 |
